Patent publication US7112573B2, “Isoflavone and triterpene glycosides from soybeans” (Iowa Research, The University Foundation, priority 2002, dated 2006)
In brackets after ≈: the same amount, converted by molar mass.

How the values were obtained:
Assay type in all cases: cell-based, human
Conditions in all cases: 6 days incubation, 50% reduction of absorbance vs untreated controls, mean of 2 observations
[1] = tested on: DU 145 prostate carcinoma cell line; assay: MTT cytotoxicity assay, DU 145
Source text: (§1) Here, as described herein below, the inventors used human stomach carcinoma (Hs 740.T, Hs 756 T), breast adenocarcinoma (Hs 578 T, Hs 742.T) and prostate carcinoma (DU 145, and LNCaP-FGC) cell lines to evaluate the cytotoxic activities of extracts and the compounds provided the invention. The 50% effective doses (ED50) obtained by measuring growth inhibition with MTT (3-[4,5-dimethlthiazol-2-yl]-2,5-diphenyltetrazolium bromide]) (Goren et al, 1996; Rubinstein et al, 1990) are shown in Table 3.
(§2) The following materials and reagents were used for cell culture and cytotoxic assays. Human stomach carcinoma (Hs 740.T, Hs 756 T), breast adenocarcinoma (Hs 578 T, Hs 742.T) and prostate carcinoma (DU 145, LNCaP-FGC) cell lines were purchased from the American Type Culture Collection ATCC. Dulbecco's modified Eagle medium (DMEM) (Gibco, Grand Island, N.Y.), Eagle Minimum Essential Medium (EMEM) and Rosewell Park Memorial Institute (RPMI) 1640 medium were from Nissui Pharm. Co., Ltd., Tokyo, Japan. Flat-bottom plates, 96-well were from Iwaki Glass Co., LTD (Funabashi-Chiba-Ken, Japan). The 3-[4,5-dimethlthiazol-2-yl]-2,5-diphenyltetrazolium bromide (MTT) colorimetric assay (Goren et al., 1996; Rubinstein et al., 1990) was from Sigma (St. Louis, Mo., USA), and 10% fetal bovine serum FBS was from Gibco BRL (Rockville, Md., USA). All other chemicals used were of analytical reagent grade.
(§3) Cell lines Hs 740.T, Hs 746 T, Hs 578 T and Hs 742.T were cultured in Dulbecco's Modified Eagle's Medium (DMEM) containing 10% heat-inactivated Fetal Bovine Serum (FBS). The DU 145 cells were cultured in Eagle Minimum Essential Medium (EMEM) containing Earle's salts and supplemented with amino acids and 10% heat-inactivated FBS. The LNCaP-FGC cell lines were maintained in Rosewell Park Memorial Institute (RPMI) 1640 medium containing 10% heat-inactivated FBS. All cell lines were cultivated in an incubator at 37° C. in humidified air containing 5% CO2. For routine cytotoxicity assays, all six cell lines were adapted to one single medium RPMI 1640 medium supplemented with 10% FBS, 2 mM L-glutamine, penicillin (100 units/mL) and streptomycin (100 μg/mL). For the microassay, the growth medium was supplemented with 10 mM HEPES (1-(2-hydroxyethyl) piperazine-4-ethanesulfonic acid) buffer (pH 7.3) and incubated at 37° C. in a CO2 incubator. These methods are similar to those used by Goren et al., (1996) AND Rubinstein et al., (1990).
(§4) Cellular viability in the presence and absence of experimental agents was determined using the standard MTT (3-[4,5-dimethlthiazol-2-yl]-2,5-diphenyltetrazolium bromide) calorimetric assay (Goren et al., 1996; Rubinstein et al., 1990). The assay is based on reduction of MTT by the mitochondrial dehydrogenase of viable cells to give a blue formazan product that can be measured spectrophotometrically (Goren et al., 1996; Rubinstein et al., 1990). In brief, exponentially growing cells were harvested, and 200 μL cells suspension were seeded in 96-well microplates and preincubated for 24 h at 37° C. under 5% CO2 to allow cell attachment. After attachment, 10 μL of an EtOH: H2O (1:1 solution) containing varying concentrations of test samples were added to wells in duplicate, and 10 μL EtOH:H2O (1:1) was added into wells as a control. Sample containing microplates were further incubated for 6 days. Cell survival was evaluated by adding 10 μL of 5 mg mL of MTT in 0.1 mM, pH 7.4 phosphate buffered saline to each well, and reincubating plates in 5% CO2/air for 4 h at 37° C. Plates were then centrifuged at 1,500×g for 5 min to precipitate cells and MTT formazan. An aliquot of 100 μL of the supernatant was removed, and DMSO (100 μL) was added to dissolve the precipitated, reduced MTT. The plate was mixed on a microshaker for 10 min, and the absorbance was determined at 550 nm with a multiwell scanning spectrophotometer (Dynex MR 5000, Chantilly Va.). […]

[2] = tested on: HS 742.T breast adenocarcinoma cell line; assay: MTT cytotoxicity assay, HS 742.T
Source text: as §1, §2, §3, §4

[3] = tested on: Hs 746 T stomach carcinoma cell line; assay: MTT cytotoxicity assay, Hs 746 T
Source text: as §1, §2, §3, §4

[4] = tested on: Hs 740.T stomach carcinoma cell line; assay: MTT cytotoxicity assay, Hs 740.T
Source text: as §1, §2, §3, §4

[5] = tested on: Hs 578 T breast adenocarcinoma cell line; assay: MTT cytotoxicity assay, Hs 578 T
Source text: as §1, §2, §3, §4

[6] = tested on: LNCAp-FGC prostate carcinoma cell line; assay: MTT cytotoxicity assay, LNCaP-FGC
Source text: as §1, §2, §3, §4

SMILES | ED50 Prostate Carcinoma DU 145 [1] [µg/mL] | ED50 Breast Adenocarcinoma HS 742.T [2] [µg/mL] | ED50 Stomach Carcinoma Hs 746 T [3] [µg/mL] | ED50 Stomach Carcinoma Hs 740.T [4] [µg/mL] | ED50 Breast Adenocarcinoma Hs 578 T [5] [µg/mL] | ED50 Prostate Carcinoma LNCAp-FGC [6] [µg/mL]
O=C1c2ccc(O[C@@H]3O[C@H](CO)[C@@H](O)[C@H](O)[C@H]3O)cc2OCC1c1ccc(O)cc1 (stereo partly drawn) [Compound 1, 7-O-β-D-glucopyranosyl-4′-hydroxy-isoflavanone] | 9.16 (≈ 21.9 µM) | 33.57 (≈ 80.2 µM) | 14.92 (≈ 35.7 µM) | 17.37 (≈ 41.5 µM) | 28.23 (≈ 67.5 µM) | 32.45 (≈ 77.6 µM)
O=C1c2c(O)cc(O[C@@H]3O[C@H](CO)[C@@H](O)[C@H](O)[C@H]3O)cc2OCC1c1ccc(O)cc1 (stereo partly drawn) [Compound 2, 7-O-β-D-glucopyranosyl-5,7,4′-trihydroxyisoflavanone] | 10.25 (≈ 23.6 µM) | 30.80 (≈ 70.9 µM) | 12.24 (≈ 28.2 µM) | 15.12 (≈ 34.8 µM) | 15.36 (≈ 35.4 µM) | 41.58 (≈ 95.7 µM)
COc1ccc(-c2coc3cc(OC4OC(COC(C)=O)[C@@H](O)C(O)C4OC(C)=O)ccc3c2=O)cc1 (stereo partly drawn) [Compound 3, formononetin-7-O-(2″,6″-O-diacetyl) glucopyranoside] | 4.18 (≈ 8.12 µM) | 25.53 (≈ 49.6 µM) | 8.89 (≈ 17.3 µM) | 7.61 (≈ 14.8 µM) | 5.44 (≈ 10.6 µM) | 22.12 (≈ 43 µM)
O=c1c(-c2ccc(O)cc2)coc2cc(O)cc(O)c12 [Compound 5, genistein, reference compound] | 2.39 (≈ 8.84 µM) | 14.88 (≈ 55.1 µM) | 5.82 (≈ 21.5 µM) | 4.38 (≈ 16.2 µM) | 3.50 (≈ 13 µM) | 25.45 (≈ 94.2 µM)
C[C@@H]1O[C@@H](O[C@H]2[C@H](O[C@@H]3CC(C)(C)C[C@H]4C5=CC[C@@H]6[C@@]7(C)CC[C@H](O[C@@H]8O[C@H](C(=O)O)[C@@H](O)[C@H](O)[C@H]8O[C@@H]8O[C@H](CO)[C@H](O)[C@H](O)[C@H]8O[C@@H]8O[C@@H](C)[C@H](O)[C@@H](O)[C@H]8O)[C@@](C)(CO)[C@@H]7CC[C@@]6(C)[C@]5(C)CC[C@@]34C)OC[C@H](O)[C@@H]2O)[C@H](O)[C@H](O)[C@H]1O [Compound 13] | 3.12 (≈ 2.55 µM) | 17.51 (≈ 14.3 µM) | 2.47 (≈ 2.02 µM) | 3.53 (≈ 2.89 µM) | 2.39 (≈ 1.96 µM) | 27.50 (≈ 22.5 µM)
C[C@@H]1O[C@@H](O[C@H]2[C@H](O[C@H]3[C@H](O[C@H]4CC[C@@]5(C)[C@@H](CC[C@]6(C)[C@@H]5CC=C5[C@@H]7CC(C)(C)C[C@@H](O[C@@H]8O[C@H](CO)[C@@H](O)[C@H](O)[C@H]8O[C@@H]8O[C@@H](C)[C@H](O)[C@@H](O)[C@H]8O)[C@]7(C)CC[C@]56C)[C@]4(C)CO)O[C@H](C(=O)O)[C@@H](O)[C@@H]3O)O[C@H](CO)[C@H](O)[C@@H]2O)[C@H](O)[C@H](O)[C@H]1O [Compound 14] | 3.25 (≈ 2.6 µM) | 14.63 (≈ 11.7 µM) | 3.94 (≈ 3.15 µM) | 4.10 (≈ 3.28 µM) | 2.12 (≈ 1.69 µM) | 24.10 (≈ 19.3 µM)
CC1(C)C[C@H]2C3=CC[C@@H]4[C@@]5(C)CC[C@H](O[C@@H]6O[C@H](C(=O)O)[C@@H](O)[C@H](O)[C@H]6O[C@@H]6O[C@H](CO)[C@H](O)[C@H](O)[C@H]6O)[C@](C)(CO)[C@@H]5CC[C@@]4(C)[C@]3(C)CC[C@@]2(C)[C@H](O[C@@H]2OC[C@H](O)[C@H](O[C@@H]3O[C@H](CO)[C@@H](O)[C@H](O)[C@H]3O)[C@H]2O)[C@@H]1O [Compound 15, 3-O-{[β-D-galactopyranosyl-(1→2)-β-D-glucuronopyranosyl]}-22-O-[β-D-glucopyranosyl(1→3)-α-L-arabinopyranosyl]soyasapogenol A, reference compound] | 2.11 (≈ 1.91 µM) | 30.10 (≈ 27.2 µM) | 3.22 (≈ 2.91 µM) | 3.15 (≈ 2.84 µM) | 4.84 (≈ 4.37 µM) | 30.70 (≈ 27.7 µM)
CC1(C)C[C@@H](O)[C@]2(C)CC[C@]3(C)C(=CC[C@@H]4[C@@]5(C)CC[C@H](O[C@@H]6O[C@H](C(=O)O)[C@@H](O)[C@H](O)[C@H]6O[C@@H]6O[C@H](CO)[C@H](O)[C@H](O)[C@H]6O[C@@H]6O[C@H](CO)[C@@H](O)[C@H](O)[C@H]6O)[C@@](C)(CO)[C@@H]5CC[C@]43C)[C@@H]2C1 [Compound 16, 3-O-[β-D-glucopyranosyl-(1→2)-β-D-galactopyranosyl(1→2)-β-D-glucuronopyranosyl] soyasapogenol B, reference compound] | 5.75 (≈ 5.99 µM) | 31.55 (≈ 32.9 µM) | 7.36 (≈ 7.67 µM) | 8.97 (≈ 9.35 µM) | 9.87 (≈ 10.3 µM) | 40.68 (≈ 42.4 µM)
CC1(C)C[C@@H](O)[C@]2(C)CC[C@]3(C)C(=CC[C@@H]4[C@@]5(C)CC[C@H](O[C@@H]6O[C@H](C(=O)O)[C@@H](O)[C@H](O)[C@H]6O)[C@@](C)(CO)[C@@H]5CC[C@]43C)[C@@H]2C1 [Compound 17, 3-O-[β-D-glucuronopyranosyl]soyasapogenol B, reference compound] | 9.13 (≈ 14.4 µM) | 28.68 (≈ 45.2 µM) | 9.59 (≈ 15.1 µM) | 9.61 (≈ 15.1 µM) | 8.77 (≈ 13.8 µM) | 37.29 (≈ 58.7 µM)
